This passage reports IC50 results from patent publication US9187465B2, “Oxazole tyrosine kinase inhibitors” (Sareum Limited, priority 2007, dated 2015).

As a reminder, the IC50 is the midpoint of a concentration-inhibition curve.

Bounds are passed on as bounds.

What all share (format): biochemical
Experiment [1] has as its target T1, human FLT4 (Homo sapiens, UniProt P35916).
T1 construct: a construct expressing the human FLT4 (789-1207) with an amino terminal GST tag; host or cells: Sf9 insect cells (baculovirus)
The experiment can be described thus: FLT4 kinase assay (DELFIA enzyme inhibition). The conditions noted are these: read-out: FLT4 IC50. In short, it runs like this:
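GST-tagged human FLT4 (789-1207) from Sf9 cells phosphorylates a biotinylated MET (Tyr1253)-derived peptide for 30 min at room temperature, stopped with EDTA. Phosphopeptide is captured on Neutravidin and detected with Eu-labelled anti-phosphotyrosine antibody by time-resolved fluorescence; IC50 from % inhibition curves.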

Experiment [2] deals with T2, human FLT3 (Homo sapiens, UniProt P36888).
T2 construct: a construct expressing the human FLT3 (564-993) with an amino terminal GST tag; host or cells: Sf9 insect cells (baculovirus)
T2 sequence (P36888 564-993): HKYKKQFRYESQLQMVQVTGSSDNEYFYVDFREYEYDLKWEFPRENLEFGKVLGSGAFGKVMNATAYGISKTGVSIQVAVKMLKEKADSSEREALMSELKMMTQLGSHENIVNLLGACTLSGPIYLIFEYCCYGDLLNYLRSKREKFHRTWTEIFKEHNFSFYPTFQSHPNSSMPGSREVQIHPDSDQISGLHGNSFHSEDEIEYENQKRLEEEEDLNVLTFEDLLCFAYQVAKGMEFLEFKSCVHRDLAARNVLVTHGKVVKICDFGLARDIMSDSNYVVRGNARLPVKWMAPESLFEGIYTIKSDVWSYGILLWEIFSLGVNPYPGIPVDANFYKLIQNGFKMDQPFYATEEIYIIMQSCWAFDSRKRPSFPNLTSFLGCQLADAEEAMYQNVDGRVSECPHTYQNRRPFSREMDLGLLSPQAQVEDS
The experiment can be described thus: FLT3 kinase assay (DELFIA enzyme inhibition). How it is done:
A GST-kinase fusion protein of 70 KDa was produced using sf9 baculovirus expression system, with a construct expressing the human FLT3 (564-993) with an amino terminal GST tag. The protein was purified by one-step affinity chromatography using glutathione-agarose.
FLT3 enzyme activity is determined using a Dissociation Enhanced Lanthanide Fluorescent Immunoassay (DELFIA) with a peptide substrate derived from the Gastrin Precursor (Tyr 87) peptide […] with a core sequence: EAYGW.
The amount of phosphorylated peptide produced is detected by means of a phospho-Tyrosine specific Europium-labelled antibody using Time-Resolved Fluorescence at Excitation 360-35 nm and Emission 620-35 nm.
Assay reactions are set up in a 25 uL final volume on a 96 well plate. […] The reaction is allowed to proceed for 30 minutes at room temperature before stopping with 100 μL Stop solution comprising of 100 mM EDTA, 1×BSA blocker in TBS (Perbio) and 0.05% Surfact-Amps20 (Perbio).
The stopped reaction is transferred to a black 96-well Neutravidin-coated plate (Perbio) and incubated for 30 minutes to capture the biotinylated peptide substrate. After washing wells 3 times with 200 uL TBS/T buffer, Anti-Phospho-Tyr-100 antibody labelled with Eu—N1 (Perkin Elmer AD0159) is added to all wells for 60 minutes at room temperature. After a repeat washing step, DELFIA Enhancement solution (Perkin Elmer) is added to all wells for 5 minutes and the fluorescence measured on a plate reader Analyst HT (Molecular Devices).
The % inhibition of the activity is calculated and plotted in order to determine the concentration of test compound required to inhibit 50% of the enzyme activity (IC50).

The target in experiment [3] is T3, human Aurora A (Homo sapiens, UniProt O14965).
T3 construct: Histidine tag (N); host or cells: Sf9 insect cells (baculovirus)
T3 sequence (O14965 1-403): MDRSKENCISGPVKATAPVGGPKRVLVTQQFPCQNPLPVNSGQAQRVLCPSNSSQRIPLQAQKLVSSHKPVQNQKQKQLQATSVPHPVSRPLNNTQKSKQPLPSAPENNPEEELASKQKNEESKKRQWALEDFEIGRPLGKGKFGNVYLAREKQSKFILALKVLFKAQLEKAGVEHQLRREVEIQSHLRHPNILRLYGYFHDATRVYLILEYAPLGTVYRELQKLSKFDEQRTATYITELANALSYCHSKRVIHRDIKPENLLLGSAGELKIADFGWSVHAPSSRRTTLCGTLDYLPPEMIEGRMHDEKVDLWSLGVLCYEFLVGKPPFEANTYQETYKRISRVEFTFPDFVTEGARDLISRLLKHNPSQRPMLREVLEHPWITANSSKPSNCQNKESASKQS
In words: Aurora A kinase assay (DELFIA enzyme inhibition). The conditions noted are these: read-out: Aurora A IC50. The procedure, abridged:
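DELFIA read-out (time-resolved Eu fluorescence, 620 nm emission) after Neutravidin capture of biotinylated peptide substrate and antibody detection. Reaction: Ni-agarose-purified Aurora A, 30 min at room temperature, stopped with 100 mM EDTA.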

T1 sequence (P35916 789-1207): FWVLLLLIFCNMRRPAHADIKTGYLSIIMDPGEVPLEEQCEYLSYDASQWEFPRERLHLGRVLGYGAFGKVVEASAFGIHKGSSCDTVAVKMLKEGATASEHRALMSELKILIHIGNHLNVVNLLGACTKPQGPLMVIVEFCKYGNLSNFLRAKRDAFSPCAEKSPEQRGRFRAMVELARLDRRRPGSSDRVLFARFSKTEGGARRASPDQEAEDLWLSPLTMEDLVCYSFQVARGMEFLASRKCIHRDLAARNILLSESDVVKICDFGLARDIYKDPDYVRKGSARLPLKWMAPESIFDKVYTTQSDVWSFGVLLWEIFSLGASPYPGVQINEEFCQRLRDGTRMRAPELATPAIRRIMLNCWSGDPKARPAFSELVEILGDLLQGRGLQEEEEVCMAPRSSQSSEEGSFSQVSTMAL

Turning to `COc1ccc(-c2nc(-c3c[nH]c4ccc(OC)cc34)[nH]c2C(N)=O)cc1` [Example B-2, 2-(5-methoxy-1H-indol-3-yl)-4-(4-methoxyphenyl)-1H-imidazole-5-carboxamide], the results for the IC50 in experiment [1], in experiment [2] and in experiment [3] were less than 10 µM, less than 10 µM and less than 100 µM, respectively.

For the molecule `COc1ccc(-c2oc(-c3c[nH]c4ccccc34)nc2C(N)=O)cc1` [Example E-3, 2-(1H-indol-3-yl)-5-(4-methoxyphenyl)oxazole-4-carboxamide], the figures for the IC50 in experiment [1], in experiment [2] and in experiment [3] were less than 10 µM, less than 100 µM and less than 100 µM, respectively.

Take `NC(=O)c1nc(-c2c(F)cccc2F)oc1-c1ccccn1` [Example F-2, 2-(2,6-difluorophenyl)-5-(pyridin-2-yl)oxazole-4-carboxamide]: the IC50 in experiment [1] and in experiment [2] was less than 100 µM each time.

On to `CN(C)c1ccc(-c2oc(-c3c(F)cccc3F)nc2C(N)=O)cn1` [Example F-7, 2-(2,6-difluorophenyl)-5-(6-(dimethylamino)pyridin-3-yl)oxazole-4-carboxamide], for which the concentration for half-maximal inhibition (IC50) in experiment [1] was less than 10 µM; in experiment [2], less than 100 µM.

With `NC(=O)c1nc(-c2c(F)cccc2F)oc1-c1ccc(N2CCOCC2)nc1` [Example F-19, 2-(2,6-difluorophenyl)-5-(6-morpholinopyridin-3-yl)oxazole-4-carboxamide], the IC50 in experiment [1] and in experiment [2] was less than 100 µM in each case.

With `COc1ccc(-c2oc(-c3ccccc3)nc2C(N)=O)cc1` [Example M-2, 5-(4-methoxyphenyl)-2-phenyloxazole-4-carboxamide], the figures for the IC50 in experiment [1] and in experiment [2] were less than 10 µM and less than 100 µM, respectively.

As to `COc1ccc(-c2oc(-c3ccc(C#N)cc3)nc2C(N)=O)cc1` [Example M-9, 2-(4-cyanophenyl)-5-(4-methoxyphenyl)oxazole-4-carboxamide], the IC50 in experiment [1] and in experiment [2] was less than 100 µM in each case.

Consider `COc1ccc(-c2oc(-c3ccc(S(C)(=O)=O)cc3)nc2C(N)=O)cc1` [Example M-11, 5-(4-methoxyphenyl)-2-(4-(methylsulfonyl)phenyl)oxazole-4-carboxamide], for which the IC50 in experiment [2] was less than 100 µM.

Take `COc1ccc(-c2oc(-c3cccc(NC(C)=O)c3)nc2C(N)=O)cc1` [Example N-3, 2-(3-acetamidophenyl)-5-(4-methoxyphenyl)oxazole-4-carboxamide]: the 50% inhibitory concentration (IC50) in experiment [1] is less than 10 µM; in experiment [2] it was less than 100 µM.

On to `COc1ccc(-c2oc(-c3cccc(C(F)(F)F)c3)nc2C(N)=O)cc1` [Example N-8, 5-(4-methoxyphenyl)-2-(3-(trifluoromethyl)phenyl)oxazole-4-carboxamide], for which the IC50 in experiment [2] and in experiment [3] was less than 100 µM each time.

With `COc1ccc(Nc2oc(-c3c(F)cccc3F)nc2C(N)=O)cc1` [Example P-1, 2-(2,6-difluorophenyl)-5-(4-methoxyphenylamino)oxazole-4-carboxamide], the IC50 in experiment [1] and in experiment [2] was less than 10 µM throughout.

As to `NC(=O)c1nc(-c2c(F)cccc2F)oc1Nc1ccc(N2CCOCC2)cc1` [Example Q-1, 2-(2,6-difluorophenyl)-5-(4-morpholinophenylamino)oxazole-4-carboxamide], the IC50 in experiment [2] and in experiment [3] was less than 10 µM throughout.

Regarding `COc1ccc(-c2oc(Nc3cccc(OC)c3)nc2C(N)=O)cc1` [Example R-3, 5-(4-methoxyphenyl)-2-(3-methoxyphenylamino)oxazole-4-carboxamide], the values for the IC50 in experiment [2] and in experiment [3] were less than 10 µM and less than 100 µM, respectively.

With `CN1CCN(CCOc2ccc(-c3oc(-c4c(F)cccc4N4CCN(C)CC4)nc3C(N)=O)cc2)CC1` [Example S-2, 2-(2-fluoro-6-(4-methylpiperazin-1-yl)phenyl)-5-(4-(2-(4-methylpiperazin-1-yl)ethoxy)phenyl)oxazole-4-carboxamide], the IC50 in experiment [2] and in experiment [3] was less than 100 µM each time.
